Among the data in patent US20240109865A1, “INDAZOLE COMPOUNDS AS KINASE INHIBITORS” (TYRA BIOSCIENCES, INC., priority 2020, published 2024) are Kd values, retold here.

Common to all, as to experiment: Kinase assay, binding constants (Kd), kinase-tagged T7 phage, qPCR
(In general: Quantitative PCR measures a nucleic acid by following its amplification.)

One test concerns the target FGFR1 (Homo sapiens (Human), UniProt P11362). In outline:
(§1)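 Using T7 phage lysates from BL21-derived E. coli, compounds at 0.9% final DMSO competed for kinase binding to ligand-bearing magnetic beads. After elution, qPCR measured remaining kinase, and Kds were fitted by non-linear least squares with the Hill slope fixed at −1.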

The next test addresses FGFR2 (Homo sapiens (Human), UniProt P21802). An outline of the steps: as §1
For a further test, the target named is FGFR3 (Homo sapiens (Human), UniProt P22607). In outline: as §1
Sequence of FGFR3 (P22607 23-806): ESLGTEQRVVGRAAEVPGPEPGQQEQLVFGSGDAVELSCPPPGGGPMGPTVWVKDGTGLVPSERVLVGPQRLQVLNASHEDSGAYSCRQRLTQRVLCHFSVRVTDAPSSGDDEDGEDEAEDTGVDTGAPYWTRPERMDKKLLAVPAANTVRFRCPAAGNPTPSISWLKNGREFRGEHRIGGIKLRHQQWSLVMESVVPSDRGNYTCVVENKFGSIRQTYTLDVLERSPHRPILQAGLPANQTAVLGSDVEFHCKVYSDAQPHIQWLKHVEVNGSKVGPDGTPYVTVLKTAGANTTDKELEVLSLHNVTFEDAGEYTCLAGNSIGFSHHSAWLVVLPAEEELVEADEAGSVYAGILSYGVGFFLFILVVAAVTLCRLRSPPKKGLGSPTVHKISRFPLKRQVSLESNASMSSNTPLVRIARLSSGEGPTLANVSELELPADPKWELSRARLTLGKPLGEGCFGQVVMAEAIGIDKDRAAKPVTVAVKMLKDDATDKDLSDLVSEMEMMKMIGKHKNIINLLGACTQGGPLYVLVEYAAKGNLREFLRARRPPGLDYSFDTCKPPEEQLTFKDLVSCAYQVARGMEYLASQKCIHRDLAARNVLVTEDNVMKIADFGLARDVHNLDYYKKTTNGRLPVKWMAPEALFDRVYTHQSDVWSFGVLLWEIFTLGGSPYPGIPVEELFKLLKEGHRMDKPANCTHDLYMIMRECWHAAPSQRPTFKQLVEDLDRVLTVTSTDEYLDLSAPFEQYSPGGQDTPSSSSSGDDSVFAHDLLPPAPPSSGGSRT
In another test the target is FGFR3 (V555M) (Homo sapiens (Human), UniProt P22607, V555M). Particulars: V555M mutant. An outline of the steps: as §1
Sequence of FGFR3 (V555M) (P22607 23-806 V555M): as the sequence (P22607 23-806) above, with V533M counted along it
A further test concerns the target FGFR4 (Homo sapiens (Human), UniProt P22455). In outline: as §1

Structures are written as SMILES.

Sequence of FGFR1 (P11362 22-822): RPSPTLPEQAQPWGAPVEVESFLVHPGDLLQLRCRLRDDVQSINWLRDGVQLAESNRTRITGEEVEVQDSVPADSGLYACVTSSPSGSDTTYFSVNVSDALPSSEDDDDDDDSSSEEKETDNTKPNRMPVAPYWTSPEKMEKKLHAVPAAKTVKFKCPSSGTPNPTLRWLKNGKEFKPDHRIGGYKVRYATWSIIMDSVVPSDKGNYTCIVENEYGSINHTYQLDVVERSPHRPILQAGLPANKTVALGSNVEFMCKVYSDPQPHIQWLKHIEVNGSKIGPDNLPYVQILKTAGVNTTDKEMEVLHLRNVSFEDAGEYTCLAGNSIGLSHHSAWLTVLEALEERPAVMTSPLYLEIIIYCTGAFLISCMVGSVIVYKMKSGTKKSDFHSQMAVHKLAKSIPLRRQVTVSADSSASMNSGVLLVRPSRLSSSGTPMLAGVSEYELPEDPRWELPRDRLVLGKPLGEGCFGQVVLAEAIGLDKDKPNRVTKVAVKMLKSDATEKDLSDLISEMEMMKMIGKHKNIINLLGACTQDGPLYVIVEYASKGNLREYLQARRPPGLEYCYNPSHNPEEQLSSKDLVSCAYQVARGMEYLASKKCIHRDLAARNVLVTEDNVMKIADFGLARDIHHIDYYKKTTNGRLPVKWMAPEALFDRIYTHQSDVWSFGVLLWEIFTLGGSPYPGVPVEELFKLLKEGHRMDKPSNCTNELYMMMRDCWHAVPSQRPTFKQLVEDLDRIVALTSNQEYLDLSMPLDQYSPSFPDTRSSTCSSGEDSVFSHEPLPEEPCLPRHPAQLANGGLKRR
Sequence of FGFR2 (P21802 22-821): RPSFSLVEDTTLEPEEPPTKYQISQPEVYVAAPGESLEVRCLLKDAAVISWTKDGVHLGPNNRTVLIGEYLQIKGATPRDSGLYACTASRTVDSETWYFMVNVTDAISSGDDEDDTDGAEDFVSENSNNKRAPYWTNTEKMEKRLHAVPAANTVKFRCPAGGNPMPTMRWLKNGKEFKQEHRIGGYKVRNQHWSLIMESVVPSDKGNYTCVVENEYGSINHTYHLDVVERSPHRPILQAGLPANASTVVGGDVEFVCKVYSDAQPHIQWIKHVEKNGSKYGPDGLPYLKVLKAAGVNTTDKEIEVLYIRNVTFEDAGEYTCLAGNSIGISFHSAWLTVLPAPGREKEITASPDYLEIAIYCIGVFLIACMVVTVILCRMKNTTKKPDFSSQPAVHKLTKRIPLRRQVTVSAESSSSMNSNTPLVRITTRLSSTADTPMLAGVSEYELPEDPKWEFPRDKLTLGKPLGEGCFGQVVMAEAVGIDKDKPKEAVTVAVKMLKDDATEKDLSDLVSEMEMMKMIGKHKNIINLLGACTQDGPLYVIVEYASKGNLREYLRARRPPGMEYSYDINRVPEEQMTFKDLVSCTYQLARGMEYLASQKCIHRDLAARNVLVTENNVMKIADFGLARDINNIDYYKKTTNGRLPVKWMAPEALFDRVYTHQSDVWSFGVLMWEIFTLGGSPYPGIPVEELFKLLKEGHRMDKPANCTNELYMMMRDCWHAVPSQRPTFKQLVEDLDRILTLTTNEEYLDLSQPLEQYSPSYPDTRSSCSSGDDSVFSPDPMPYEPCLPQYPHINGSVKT
Sequence of FGFR4 (P22455 22-802): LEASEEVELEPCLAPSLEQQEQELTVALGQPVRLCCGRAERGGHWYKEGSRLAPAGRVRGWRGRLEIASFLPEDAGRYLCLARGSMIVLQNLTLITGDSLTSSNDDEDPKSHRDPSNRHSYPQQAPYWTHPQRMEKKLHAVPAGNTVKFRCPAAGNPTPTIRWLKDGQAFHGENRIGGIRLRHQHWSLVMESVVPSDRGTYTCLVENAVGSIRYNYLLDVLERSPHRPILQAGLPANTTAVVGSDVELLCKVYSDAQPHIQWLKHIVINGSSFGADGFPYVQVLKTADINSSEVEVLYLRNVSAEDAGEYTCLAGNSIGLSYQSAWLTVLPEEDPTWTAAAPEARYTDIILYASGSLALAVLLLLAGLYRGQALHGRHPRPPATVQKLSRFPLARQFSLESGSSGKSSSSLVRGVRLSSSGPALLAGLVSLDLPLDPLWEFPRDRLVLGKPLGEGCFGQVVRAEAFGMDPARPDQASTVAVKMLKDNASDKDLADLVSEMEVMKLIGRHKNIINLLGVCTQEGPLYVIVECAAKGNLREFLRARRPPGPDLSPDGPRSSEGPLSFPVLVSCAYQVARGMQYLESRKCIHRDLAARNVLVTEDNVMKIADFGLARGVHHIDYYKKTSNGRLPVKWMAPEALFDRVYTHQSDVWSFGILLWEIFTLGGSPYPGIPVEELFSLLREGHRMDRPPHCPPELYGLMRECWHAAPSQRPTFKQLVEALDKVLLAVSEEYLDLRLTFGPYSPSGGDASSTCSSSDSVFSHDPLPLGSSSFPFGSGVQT

In general, Kd refers to the constant that tells how readily two partners part at equilibrium. The low end stands for higher affinity, the high end for lower affinity. For `Cc1cc2[nH]nc(-c3cnc(N4CC5(C4)CN(S(C)(=O)=O)C5)c(F)c3)c2cc1O[C@H](C)c1c(Cl)cnc(C)c1Cl` [Example 273, 5-[(1R)-1-(3,5-dichloro-2-methyl-4-pyridyl)ethoxy]-3-[5-fluoro-6-(2-methylsulfonyl-2,6-diazaspiro[3.3]heptan-6-yl)-3-pyridyl]-6-methyl-1H-indazole], the dissociation constant (Kd) at FGFR1 was 20 to 100 nM; on FGFR2, 20 to 100 nM; at FGFR3, 1 to 20 nM; at FGFR3 (V555M) (given as a number), 1.8 nM; at FGFR4, 1 to 20 nM.
For `Cc1ncc(Cl)c([C@@H](C)Oc2cc3c(-c4cnc(N5CCC5)c(F)c4)n[nH]c3cc2Cl)c1Cl` [Example 274, 3-[6-(azetidin-1-yl)-5-fluoro-3-pyridyl]-6-chloro-5-[(1R)-1-(3,5-dichloro-2-methyl-4-pyridyl)ethoxy]-1H-indazole], the dissociation constant (Kd) at FGFR1 was 100 to 300 nM; on FGFR2, 100 to 300 nM; on FGFR3 it was 20 to 100 nM; on FGFR3 (V555M), 1 to 20 nM; on FGFR4, 20 to 100 nM.
Regarding `CNC1(C)CN(c2ncc(-c3n[nH]c4cc(Cl)c(O[C@H](C)c5c(Cl)cnc(C)c5Cl)cc34)cc2F)C1` [Example 275, 1-[5-[6-chloro-5-[(1R)-1-(3,5-dichloro-2-methyl-4-pyridyl)ethoxy]-1H-indazol-3-yl]-3-fluoro-2-pyridyl]-N,3-dimethyl-azetidin-3-amine], the Kd on FGFR1 lay within 1 to 20 nM; on FGFR2, 20 to 100 nM; at FGFR3, 1 to 20 nM; at FGFR3 (V555M), 1 to 20 nM; on FGFR4, 1 to 20 nM.
As to `C[C@H](Oc1ccc2[nH]nc(-c3cnc(N4CCC4)c(C#N)c3)c2c1)c1c(Cl)cnc(F)c1Cl` [Example 283, (S)-2-(azetidin-1-yl)-5-(5-(1-(3,5-dichloro-2-fluoropyridin-4-yl)ethoxy)-1H-indazol-3-yl)nicotinonitrile], the Kd at FGFR1, at FGFR2, on FGFR3, at FGFR3 (V555M) and on FGFR4 was greater than 300 nM throughout.
In the case of `C[C@@H](Oc1ccc2[nH]nc(-c3cnc(N4CC[C@@H](O)C4)c(C#N)c3)c2c1)c1c(Cl)cnc(F)c1Cl` [Example 284, 5-(5-((R)-1-(3,5-dichloro-2-fluoropyridin-4-yl)ethoxy)-1H-indazol-3-yl)-2-((R)-3-hydroxypyrrolidin-1-yl)nicotinonitrile], the Kd at FGFR1 was greater than 300 nM; at FGFR2 it was greater than 300 nM; at FGFR3, 100 to 300 nM; at FGFR3 (V555M), 20 to 100 nM; at FGFR4, 20 to 100 nM.
Turning to `C[C@@H](Oc1ccc2[nH]nc(-c3cnc(N4CCCC4)c(C#N)c3)c2c1)c1c(Cl)cncc1Cl` [Example 285, 5-[5-[(1R)-1-(3,5-dichloro-4-pyridyl)ethoxy]-1H-indazol-3-yl]-2-pyrrolidin-1-yl-pyridine-3-carbonitrile], the dissociation constant (Kd) was greater than 300 nM at FGFR1; greater than 300 nM on FGFR2; 100 to 300 nM at FGFR3; 20 to 100 nM at FGFR3 (V555M); 1 to 20 nM at FGFR4.
In the case of `C[C@@H](Oc1ccc2[nH]nc(-c3cnc(N4CCC4)c(C#N)c3)c2c1)c1c(Cl)cnc(F)c1Cl` [Example 286, (R)-2-(azetidin-1-yl)-5-(5-(1-(3,5-dichloro-2-fluoropyridin-4-yl)ethoxy)-1H-indazol-3-yl)nicotinonitrile], the Kd on FGFR1 was greater than 300 nM; on FGFR2 it was greater than 300 nM; on FGFR3, greater than 300 nM; on FGFR3 (V555M), greater than 300 nM; at FGFR4 it was 100 to 300 nM.
For `C[C@@H](Oc1ccc2[nH]nc(-c3cnc(N4CC(O)C4)c(C#N)c3)c2c1)c1c(Cl)cnc(F)c1Cl` [Example 287, (R)-5-(5-(1-(3,5-dichloro-2-fluoropyridin-4-yl)ethoxy)-1H-indazol-3-yl)-2-(3-hydroxyazetidin-1-yl)nicotinonitrile], the Kd on FGFR1 was greater than 300 nM; on FGFR2, greater than 300 nM; on FGFR3, 100 to 300 nM; on FGFR3 (V555M), 100 to 300 nM; at FGFR4, 20 to 100 nM.
Turning to `C[C@@H](Oc1ccc2[nH]nc(-c3cnc(N4CC[C@H](O)C4)c(C#N)c3)c2c1)c1c(Cl)cnc(F)c1Cl` [Example 288, 5-(5-((R)-1-(3,5-dichloro-2-fluoropyridin-4-yl)ethoxy)-1H-indazol-3-yl)-2-((S)-3-hydroxypyrrolidin-1-yl)nicotinonitrile], the Kd on FGFR1 was greater than 300 nM; at FGFR2 it was greater than 300 nM; at FGFR3 it was 20 to 100 nM; at FGFR3 (V555M), 20 to 100 nM; at FGFR4, 1 to 20 nM.
With `C[C@H](Oc1ccc2[nH]nc(-c3cnc(N4CC(O)C4)c(C#N)c3)c2c1)c1c(Cl)cnc(F)c1Cl` [Example 291, (S)-5-(5-(1-(3,5-dichloro-2-fluoropyridin-4-yl)ethoxy)-1H-indazol-3-yl)-2-(3-hydroxyazetidin-1-yl)nicotinonitrile], the Kd at FGFR1, at FGFR2, on FGFR3, on FGFR3 (V555M) and on FGFR4 was greater than 300 nM in each case.
As for `C[C@@H](Oc1ccc2[nH]nc(-c3cnc(N4CCCC4)c(C#N)c3)c2c1)c1c(Cl)cnc(F)c1Cl` [Example 292, (R)-5-(5-(1-(3,5-dichloro-2-fluoropyridin-4-yl)ethoxy)-1H-indazol-3-yl)-2-(pyrrolidin-1-yl)nicotinonitrile], the Kd is greater than 300 nM at FGFR1; greater than 300 nM at FGFR2; greater than 300 nM at FGFR3; greater than 300 nM on FGFR3 (V555M); 100 to 300 nM on FGFR4.
For the compound `C[C@@H](Oc1ccc2[nH]nc(-c3cnc(N4CC[C@H](O)C4)c(C#N)c3)c2c1)c1c(Cl)cncc1Cl` [Example 293, 5-[5-[(1R)-1-(3,5-dichloro-4-pyridyl)ethoxy]-1H-indazol-3-yl]-2-[(3S)-3-hydroxypyrrolidin-1-yl]pyridine-3-carbonitrile], the Kd at FGFR1 lay in the range of 20 to 100 nM; at FGFR2, 20 to 100 nM; at FGFR3 it was 1 to 20 nM; on FGFR3 (V555M), 1 to 20 nM; on FGFR4, 1 to 20 nM.
Take `C[C@@H](Oc1ccc2[nH]nc(-c3cnc(N4CC[C@@H](C(C)(C)O)C4)c(C#N)c3)c2c1)c1c(Cl)cncc1Cl` [Example 294, 5-[5-[(1R)-1-(3,5-dichloro-4-pyridyl)ethoxy]-1H-indazol-3-yl]-2-[(3R)-3-(1-hydroxy-1-methyl-ethyl)pyrrolidin-1-yl]pyridine-3-carbonitrile]: the dissociation constant (Kd) was greater than 300 nM on FGFR1; greater than 300 nM at FGFR2; 100 to 300 nM on FGFR3; 20 to 100 nM at FGFR3 (V555M); 20 to 100 nM at FGFR4.
Take `Cc1ncc(Cl)c([C@@H](C)Oc2ccc3[nH]nc(-c4cnc(N5CC(CC(F)(F)F)C5)c(C#N)c4)c3c2)c1Cl` [Example 295, 5-[5-[(1R)-1-(3,5-dichloro-2-methyl-4-pyridyl)ethoxy]-1H-indazol-3-yl]-2-[3-(2,2,2-trifluoroethyl)azetidin-1-yl]pyridine-3-carbonitrile]: the Kd at FGFR1 was greater than 300 nM; at FGFR2, greater than 300 nM; at FGFR3 it was greater than 300 nM; at FGFR3 (V555M), 100 to 300 nM; on FGFR4 it was 20 to 100 nM.
